According to the NIST ThermoML archive (doi:10.1016/j.jct.2005.10.009):
Numbers after ± are expanded uncertainties.

Test: molar heat capacity at constant pressure; xn = mol fraction of the nth substance listed
Conditions: 101 kPa, Liquid, Small sample (50 mg) DSC

CCCCCCCCCCO [decan-1-ol] + CCCCCCC
molar heat capacity at constant pressure [J/K/mol]
Conditions	x1 = 0.0506	x1 = 0.0979	x1 = 0.1541	x1 = 0.2543	x1 = 0.3757	x1 = 0.5378	x1 = 0.7551	x1 = 0.9008	x1 = 1
290.91 K	235.98 ± 3.7	243.78 ± 3.8	252.15 ± 3.9	266.07 ± 4.1	282.7 ± 4.4	304.21 ± 4.7	333.09 ± 5.2	351.55 ± 5.5	364.49 ± 5.7
291.15 K	236.08 ± 3.7	243.9 ± 3.8	252.2 ± 3.9	266.16 ± 4.1	282.63 ± 4.4	304.17 ± 4.7	333.35 ± 5.2	351.9 ± 5.5	364.8 ± 5.7
292.15 K	236.53 ± 3.7	244.42 ± 3.8	252.79 ± 3.9	266.99 ± 4.1	283.4 ± 4.4	305.3 ± 4.7	334.38 ± 5.2	353.11 ± 5.5	366.05 ± 5.7
293.15 K	237.09 ± 3.7	245.13 ± 3.8	253.5 ± 3.9	267.69 ± 4.2	284.09 ± 4.4	306.17 ± 4.7	335.4 ± 5.2	354.31 ± 5.5	367.19 ± 5.7
294.15 K	237.67 ± 3.7	245.8 ± 3.8	254.28 ± 3.9	268.44 ± 4.2	284.97 ± 4.4	307.04 ± 4.8	336.39 ± 5.2	355.23 ± 5.5	368.25 ± 5.7
295.15 K	238.27 ± 3.7	246.44 ± 3.8	255.06 ± 4	269.19 ± 4.2	285.92 ± 4.4	308.08 ± 4.8	337.47 ± 5.2	356.26 ± 5.5	369.35 ± 5.7
296.15 K	238.89 ± 3.7	247.13 ± 3.8	255.82 ± 4	269.75 ± 4.2	286.81 ± 4.4	308.89 ± 4.8	338.44 ± 5.2	357.26 ± 5.5	370.35 ± 5.7
297.15 K	239.51 ± 3.7	247.87 ± 3.8	256.61 ± 4	270.59 ± 4.2	287.73 ± 4.5	309.97 ± 4.8	339.61 ± 5.3	358.4 ± 5.5	371.6 ± 5.8
298.15 K	239.86 ± 3.7	248.38 ± 3.9	257.16 ± 4	271.36 ± 4.2	288.4 ± 4.5	310.74 ± 4.8	340.46 ± 5.3	359.54 ± 5.6	372.77 ± 5.8
299.15 K	240.3 ± 3.7	248.86 ± 3.9	257.8 ± 4	272.19 ± 4.2	289.09 ± 4.5	311.53 ± 4.8	341.42 ± 5.3	360.58 ± 5.6	373.71 ± 5.8
300.15 K	240.83 ± 3.7	249.51 ± 3.9	258.45 ± 4	272.99 ± 4.2	289.92 ± 4.5	312.43 ± 4.8	342.44 ± 5.3	361.76 ± 5.6	374.91 ± 5.8
301.15 K	241.28 ± 3.7	250.01 ± 3.9	259.03 ± 4	273.68 ± 4.2	290.74 ± 4.5	313.24 ± 4.8	343.35 ± 5.3	362.66 ± 5.6	375.89 ± 5.8
302.15 K	241.86 ± 3.8	250.66 ± 3.9	259.8 ± 4	274.46 ± 4.2	291.61 ± 4.5	314.17 ± 4.9	344.4 ± 5.3	363.81 ± 5.6	377.05 ± 5.8
303.15 K	242.35 ± 3.8	251.17 ± 3.9	260.34 ± 4	275.23 ± 4.3	292.47 ± 4.5	315.15 ± 4.9	345.4 ± 5.3	364.87 ± 5.7	378.2 ± 5.9
304.15 K	242.86 ± 3.8	251.87 ± 3.9	261.18 ± 4	276.03 ± 4.3	293.43 ± 4.5	316.13 ± 4.9	346.52 ± 5.4	366.04 ± 5.7	379.47 ± 5.9
305.15 K	243.39 ± 3.8	252.56 ± 3.9	261.84 ± 4.1	276.84 ± 4.3	294.24 ± 4.6	317.05 ± 4.9	347.59 ± 5.4	367.12 ± 5.7	380.58 ± 5.9
306.15 K	243.87 ± 3.8	253.07 ± 3.9	262.53 ± 4.1	277.6 ± 4.3	295.15 ± 4.6	318 ± 4.9	348.57 ± 5.4	368.24 ± 5.7	381.75 ± 5.9
307.15 K	244.14 ± 3.8	253.41 ± 3.9	262.92 ± 4.1	278.04 ± 4.3	295.57 ± 4.6	318.55 ± 4.9	349.26 ± 5.4	368.97 ± 5.7	382.43 ± 5.9
308.15 K	245.18 ± 3.8	254.65 ± 4	264.24 ± 4.1	279.52 ± 4.3	297.18 ± 4.6	320.29 ± 5	351.13 ± 5.4	370.98 ± 5.8	384.6 ± 6
309.15 K	245.41 ± 3.8	255.04 ± 4	264.68 ± 4.1	280.05 ± 4.3	297.76 ± 4.6	320.96 ± 5	351.89 ± 5.5	371.76 ± 5.8	385.42 ± 6
310.15 K	245.95 ± 3.8	255.58 ± 4	265.32 ± 4.1	280.82 ± 4.3	298.67 ± 4.6	321.92 ± 5	352.97 ± 5.5	372.9 ± 5.8	386.61 ± 6
311.15 K	246.43 ± 3.8	256.31 ± 4	266.13 ± 4.1	281.69 ± 4.4	299.62 ± 4.6	323.01 ± 5	354.17 ± 5.5	374.19 ± 5.8	387.89 ± 6
312.15 K	246.88 ± 3.8	256.87 ± 4	266.75 ± 4.1	282.41 ± 4.4	300.41 ± 4.7	323.89 ± 5	355.15 ± 5.5	375.27 ± 5.8	389.03 ± 6
313.15 K	247.31 ± 3.8	257.46 ± 4	267.42 ± 4.1	283.25 ± 4.4	301.36 ± 4.7	324.89 ± 5	356.22 ± 5.5	376.4 ± 5.8	390.28 ± 6
314.15 K	247.77 ± 3.8	258.06 ± 4	268.13 ± 4.2	284.06 ± 4.4	302.25 ± 4.7	325.9 ± 5	357.35 ± 5.5	377.6 ± 5.8	391.58 ± 6.1
315.15 K	248.34 ± 3.9	258.68 ± 4	268.86 ± 4.2	284.88 ± 4.4	303.16 ± 4.7	326.94 ± 5.1	358.54 ± 5.5	378.81 ± 5.9	392.8 ± 6.1
316.15 K	248.75 ± 3.9	259.2 ± 4	269.56 ± 4.2	285.67 ± 4.4	304.03 ± 4.7	327.84 ± 5.1	359.56 ± 5.6	379.98 ± 5.9	394.11 ± 6.1
317.15 K	249.2 ± 3.9	259.91 ± 4	270.2 ± 4.2	286.49 ± 4.4	304.91 ± 4.7	328.86 ± 5.1	360.67 ± 5.6	381.22 ± 5.9	395.3 ± 6.1
318.15 K	249.65 ± 3.9	260.46 ± 4	270.95 ± 4.2	287.25 ± 4.5	305.87 ± 4.7	329.91 ± 5.1	361.79 ± 5.6	382.38 ± 5.9	396.66 ± 6.2
318.39 K	249.73 ± 3.9	260.52 ± 4	271.04 ± 4.2	287.43 ± 4.5	306.02 ± 4.7	330.09 ± 5.1	362.01 ± 5.6	382.62 ± 5.9	396.93 ± 6.2
